Substitutions are numbered along the chain they refer to. Structures can show the parent of a compound that is named as a salt. Where two headings read alike, the source gives them in different places.
Experiments:
[1] = target: T1, GST-ERα wt-LBD (Homo sapiens, UniProt P03372); experiment: competitive radiometric 3[H]E2 displacement binding assay, wt LBD
T1 construct: made in house; host or cells: E. coli BL21 (CodonPlus DE3-RIL)
T1 sequence (P03372 303-595): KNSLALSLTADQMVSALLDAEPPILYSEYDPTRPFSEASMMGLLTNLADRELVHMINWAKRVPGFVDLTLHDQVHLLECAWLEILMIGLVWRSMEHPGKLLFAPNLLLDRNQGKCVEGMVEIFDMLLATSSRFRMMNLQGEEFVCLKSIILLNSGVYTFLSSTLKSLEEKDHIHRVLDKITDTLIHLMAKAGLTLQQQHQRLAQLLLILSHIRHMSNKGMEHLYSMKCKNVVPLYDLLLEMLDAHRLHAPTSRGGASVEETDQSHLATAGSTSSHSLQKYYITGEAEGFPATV
Description: Microplates (Basic Flashplates, NEN) wells were coated for 12 hrs at 4° C. with 100 μl of PBS containing anti-GST antibodies (Amersham) at a concentration of 5 μg/ml. After washing three times with 200 μl of PBS, the background was reduced by saturating with 200 μl of PBS containing 1% BSA for 3 hrs at 4° C. Wells were then washed three times with 200 μl of lysis buffer containing 0.1 M NaCl and 0.2% n-Dodecyl BD-maltoside (assay buffer).
Suitable amounts of crude E. coli supernatants containing the GST-ER LBD proteins (2-10 μl) or of purified polypeptides (8 nM) were bound to the anti-GST antibody-coated wells for 1 hr at 23° C. in 200 μl of the assay buffer with constant agitation. After three more washes with 200 μl of the same buffer, the ligand-binding reaction was set up in 195 μl of assay buffer containing 2 nM-10 nM 3[H]E2 and 5 μl of DMSO or of suitable dilutions of the test compounds in DMSO. Incubation was for 2 hrs at 23° C. with constant shaking, followed by SPA radioactivity measurement using a microplate scintillation and luminescence counter (Top Count NXT, Packard). IC50 values were obtained by multiparameter logistic fitting of the experimental data with the aid of a Kaleidagraph software.

[2] = target: hERβ (Homo sapiens, UniProt Q92731); experiment: binding to full-length hERβ; conditions: full-length receptor
[3] = target: T2, hERα (Homo sapiens, UniProt P03372); experiment: binding to full-length hERα
T2 construct: relative to the wt LBD and to both α and β full-length ER
T2 sequence (P03372 1-595): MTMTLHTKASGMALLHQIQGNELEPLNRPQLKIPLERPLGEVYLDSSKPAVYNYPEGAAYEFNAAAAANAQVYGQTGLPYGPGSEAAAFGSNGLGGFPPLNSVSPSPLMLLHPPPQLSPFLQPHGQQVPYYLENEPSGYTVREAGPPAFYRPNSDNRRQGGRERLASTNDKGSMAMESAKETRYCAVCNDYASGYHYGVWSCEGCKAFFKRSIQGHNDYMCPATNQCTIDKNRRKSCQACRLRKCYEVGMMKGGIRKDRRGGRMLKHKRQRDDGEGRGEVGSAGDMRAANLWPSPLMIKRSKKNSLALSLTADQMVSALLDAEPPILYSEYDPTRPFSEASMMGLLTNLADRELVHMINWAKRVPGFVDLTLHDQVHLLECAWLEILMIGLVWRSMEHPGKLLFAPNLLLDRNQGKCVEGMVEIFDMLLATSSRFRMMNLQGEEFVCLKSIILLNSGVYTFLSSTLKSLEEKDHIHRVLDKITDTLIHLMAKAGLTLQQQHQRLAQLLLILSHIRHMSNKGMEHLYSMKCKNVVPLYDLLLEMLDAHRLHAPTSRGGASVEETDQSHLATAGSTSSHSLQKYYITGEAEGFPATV

[4] = test system: MG-LBD variant with Gly521 substituted with Val, Leu, Met, or Arg; experiment: β-Galactosidase transcription assay in yeast, Gly521 substitutions in MG-LBD; assay type: cell-based, human; conditions: data not shown
[5] = target: T3, HEA-1 (Homo sapiens, UniProt P03372, G521R); conditions: cell culture; Roscilli et al., 2002; cited from earlier work
T3 sequence (P03372 303-595 G521R): T1 sequence (P03372 303-595) with G219R

[6] = 3[H]E2 displacement, read-out: GST-ERα wt-LBD IC50
[7] = full-length receptor, read-out: hERα IC50

hERβ, sequence (Q92731 whole entry): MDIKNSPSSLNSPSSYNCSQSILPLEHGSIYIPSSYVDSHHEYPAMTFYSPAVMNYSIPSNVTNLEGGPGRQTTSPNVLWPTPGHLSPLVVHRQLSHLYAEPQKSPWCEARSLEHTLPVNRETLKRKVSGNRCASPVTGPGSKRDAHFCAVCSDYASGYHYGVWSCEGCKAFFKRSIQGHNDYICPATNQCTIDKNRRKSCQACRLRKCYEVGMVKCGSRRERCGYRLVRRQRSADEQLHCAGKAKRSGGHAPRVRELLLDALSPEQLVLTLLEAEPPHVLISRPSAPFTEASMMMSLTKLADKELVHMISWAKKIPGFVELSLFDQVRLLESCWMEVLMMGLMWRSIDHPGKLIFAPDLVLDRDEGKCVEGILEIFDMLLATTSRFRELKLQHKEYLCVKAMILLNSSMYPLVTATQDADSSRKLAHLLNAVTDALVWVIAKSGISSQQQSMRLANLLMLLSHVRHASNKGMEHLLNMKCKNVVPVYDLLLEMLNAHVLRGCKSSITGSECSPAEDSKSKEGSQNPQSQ

Compound | IC50 [1, 6] | IC50 [2] | IC50 [3, 7] | also measured
CN(C)CCOc1ccc(C2=C3c4ccc(O)cc4CC3(Cc3ccccc3)CCC2=O)cc1 (stereo not shown) [CMP12, 9a-benzyl-4-{4-[2-(di-methylamino)ethoxy]phe-nyl}-7-hydroxy-1,2,9,9a-tetra-hydro-3H-fluor-en-3-one] | 4.17 µM | – | – | –
CC1=C2c3ccc4[nH]ncc4c3CC2(Cc2ccccc2)CCC1=O (stereo not shown) [CMP5, 6-methyl-9a-ben-zyl-8,9,9a,10-tetra-hydroindeno[2,1-e]in-dazol-7(3H)-one] | > 10 µM | 1.25 µM | > 10 µM | –
CC1=C2c3ccc(O)cc3CC2(Cc2ccc(Cl)cc2)CCC1=O (stereo not shown) [CMP17, 9a-(4-chlorobenzyl)-7-hy-droxy-4-methyl-1,2,9,9a-tetra-hydro-3%{H}-fluor-en-3-one] | 6.83 µM | – | – | –
O=C1CCC2(Cc3ccc(Cl)cc3)Cc3cc(O)ccc3C2=C1c1ccc(OCCN2CCCCC2)cc1 (stereo not shown) [CMP8, 9a-(4-chlorobenzyl)-7-hy-droxy-4-{4-[2-(1-pipe-ridinyl)-eth-oxy]phenyl}-1,2,9,9a-tetra-hydro-3H-fluor-en-3-one] | 4.44 µM | 2.23 µM | 1.08 µM | –
O=C1CCC2(Cc3ccccc3)Cc3cc(O)ccc3C2=C1c1ccc(O)cc1 (stereo not shown) [CMP6, 9a-benzyl-7-hydroxy-4-(4-hy-droxyphenyl)-1,2,9,9a-tetra-hydro-3H-flour-en-3-one] | – | 0.096 µM | – | IC50 [1]: 1.37 µM; IC50 [3]: 0.223 µM
CCCCC1=C2c3ccc(O)cc3CC2(Cc2ccccc2)CCC1=O (stereo not shown) [CMP7, 9a-benzyl-4-butyl-7-hy-droxy-1,2,9,9a-tetra-hydro-3H-fluor-en-3-one] | 1.31 µM | 0.307 µM | 0.259 µM | –
O=C1CCC2(Cc3ccccc3)Cc3cc(O)ccc3C2=C1c1cccnc1 (stereo not shown) [CMP14, 9a-benzyl-7-hydroxy-4-py-ridin-3-yl-1,2,9,9a-tetra-hydro-3H-fluor-en-3-one] | > 3.6 µM | – | – | –
CC1=C2c3ccc4[nH]ncc4c3CC2(Cc2ccc(F)cc2)CCC1=O (stereo not shown) [CMP25, 6-methyl-9a-(4-fluoro-benzyl)-8,9,9a,10-tetra-hydroindeno[2,1-e]in-dazol-7(3H)-one] | – | 0.997 µM | – | –
O=C1CCC2(Cc3ccccc3)Cc3cc(O)ccc3C2=C1c1ccncc1 (stereo not shown) [CMP15, 9a-benzyl-7-hydroxy-4-py-ridin-4-yl-1,2,9,9a-tetra-hydro-3H-fluor-en-3-one] | 0.725 µM | 0.558 µM | 1.18 µM | –
CC1=C2c3ccc4[nH]ncc4c3CC2(Cc2ccccc2F)CCC1=O (stereo not shown) [CMP27, 6-methyl-9a-(2-fluoro-benzyl)-8,9,9a,10-tetra-hydroindeno[2,1-e]in-dazol-7(3H)-one] | – | 0.529 µM | 4.3 µM | –
CC1=C2c3ccc(O)cc3CC2(Cc2ccccc2)CCC1=O (stereo not shown) [CMP4, 9a-benzyl-7-hy-droxy-4-methyl-1,2,9,9a-tetra-hydro-3H-fluor-en-3-one] | 2.32 µM | 0.506 µM | – | response (trans-activation in yeast) [4]: dramatic loss of response; IC50 [3]: 1.47 µM
O=C1CCC2(Cc3ccccc3)Cc3cc(O)ccc3C2=C1c1ccc(OCCN2CCOCC2)cc1 (stereo not shown) [CMP11, 9a-benzyl-7-hy-droxy-4-{4-[2-(4-mor-pholinyl)-eth-oxy]phenyl}-1,2,9,9a-tetra-hydro-3H-fluor-en-3-one] | – | – | – | IC50 [1]: 2.31 µM
CC1=C2c3cc(Br)c(O)c(Br)c3CC2(Cc2ccccc2)CCC1=O (stereo not shown) [CMP24, 9a-benzyl-6,8-di-bromo-7-hydroxy-4-meth-yl-1,2,9,9a-tetra-hydro-3%{H}-fluor-en-3-one] | > 180 µM | – | – | –
CC1=C2c3ccc4[nH]ncc4c3CC2(Cc2cccc(F)c2)CCC1=O (stereo not shown) [CMP26, 6-methyl-9a-(3-fluoro-benzyl)-8,9,9a,10-tetra-hydroindeno[2,1-e]in-dazol-7(3H)-one] | – | 1.07 µM | – | –
4 hydroxytamoxifen [4-OH Tam] | – | – | – | drug-dependent transgene induction [5]: up to hundred-fold
O=C1CCC2(Cc3ccccc3)Cc3cc(O)ccc3C2=C1c1ccc(OCCN2CCCCC2)cc1 (stereo not shown) [CMP10, 9a-benzyl-7-hy-droxy-4-{4-[2-(1-pipe-ridinyl)-eth-oxy]phenyl}-1,2,9,9a-tetra-hydro-3H-fluor-en-3-one] | – | 0.184 µM | – | IC50 [1]: 1.27 µM; IC50 [3]: 0.375 µM
O=C1CCC2(Cc3ccccc3)Cc3c(ccc4[nH]ncc34)C2=C1c1ccc(OCCN2CCCCC2)cc1 (stereo not shown) [CMP9, 9a-benzyl-6-{4-[2-(1-pipe-ridinyl)eth-oxy]phenyl}-8,9,9a,10-tetra-hydroindeno[2,1-e]in-dazol-7(3H)-one hydrotrifluoroacetae salt] | – | 0.125 µM | – | –
CC1=C2c3ccc4nn[nH]c4c3CC2(Cc2ccccc2)CCC1=O (stereo not shown) [CMP30, 9a-benzyl-6-methyl-8,9,9a,10-tetra-hydrofluoreno[1,2-d][1,2,3]tri-azol-7(3H)-one] | – | 4.19 µM | – | –
O=C1CCC2(Cc3ccccc3)Cc3cc(O)ccc3C2=C1c1ccccn1 (stereo not shown) [CMP13, 9a-benzyl-7-hydroxy-4-py-ridin-2-yl-1,2,9,9a-tetra-hydro-3H-fluor-en-3-one] | > 3.6 µM | – | – | –
CC1=C2c3ccc4[nH]nnc4c3CC2(Cc2ccccc2C(F)(F)F)CCC1=O (stereo not shown) [CMP34, 9a-[2-(tri-fluoromethyl)benzyl]-6-meth-yl-8,9,9a,10-tetra-hydrofluoreno[1,2-d][1,2,3]tri-azol-7(3H)-one] | – | > 10 µM | > 10 µM | –

Source: patent US20070087346A1, “Orthogonal gene switches” (priority 2003, published 2007)
